Consider 1 compound from article PMC5750238 (2018).

By EC50 is commonly meant the midpoint of the concentration-response curve.

The test system of this assay is S6-M19-SAM sensor (RNA, riboswitch) GGGAGAUAGAGCAUCCGAUAACUUCGGUUAUUGGAUGGAUCAGACUCCUUCGGGAGUUUGAUCGGGCCUGAAGCCUCCACGGGCCCCUCUGUCUCCCACAGCUUGGACGAGCUGAAGGAGGCACGGCUCCCCAUCAAGGACGGGUCCAAUGGUCCGCUUCGGCGGAUCAUUGUUGAGUAGAGUGUGAGGAUGGGCCGGGGGAACUUCGGUUCCCGAAAGGACCGGUCGAAGGGACGGUGCGGAGAGGAGAGACUGGGAUGCCUUGUAACCGGGUCUAAGUUGU
The assay can be described thus: FRET dose-response (Spinach/DFHBI-1T to Mango/YO3-biotin). The note with it: 125 mM KCl, 1 mM MgCl2; assembly buffer; 50 nM RNA, 1 µM DFHBI-1T, 1.7 µM YO3-biotin; SAM 1 µM to 2.5 mM; apparent.

For `C[S+](CC[C@H](N)C(=O)O)C[C@H]1O[C@@H](n2cnc3c(N)ncnc32)[C@H](O)[C@@H]1O` (stereo partly shown), the EC50 was 17 µM.
